Laboratory results taken from article PMC10454409, “Hybrids of Sterically Hindered Phenols and Diaryl Ureas: Synthesis, Switch from Antioxidant Activity to ROS Generation and Induction of Apoptosis” (International Journal of Molecular Sciences, 2023).
Like-named read-outs stand apart in the source and are kept apart here.

Columns and labels:
Type in all cases: cell-based
[1] = tested on: M-HeLa cells (human cervix epithelioid carcinoma); assay: MTT cytotoxicity test, M-HeLa; settings: for IC50: Homo sapiens, M-HeLa, MTT test, 24 h incubation per text, 48 h per method
Text: (§1) For the experiments, we used tumor cell cultures M-HeLa clone 11 (epithelioid carcinoma of the cervix, subline HeLa., clone M-HeLa), HuTu 80 (human duodenal adenocarcinoma) and MCF7 (human breast adenocarcinoma (pleural fluid)) from the collection of the Institute of Cytology, Russian Academy of Sciences (St. Petersburg); human liver cells (Chang liver) from the collection of the Research Institute of Virology at the Russian Academy of Medical Sciences (Moscow); and SH-SY5Y (neuroblastoma)from the Laboratory of Tumor Cell Genetics at the Scientific Research Institute of Carcinogenesis N.N. Blokhin National Medical Research Center of Oncology.
(§2) The cytotoxic effect on cells was determined using the colorimetric method of cell proliferation—the MTT test. NADP-H-dependent cellular oxidoreductase enzymes can, under certain conditions, reflect the number of viable cells. These enzymes are able to reduce the tetrazolium dye (MTT)-3-(4,5-dimethylthiazol-2-yl)-2,5-diphenyl-tetrazolium bromide to insoluble blue-violet formazan, which crystallizes inside the cell. The amount of formazan formed is proportional to the number of cells with active metabolism.
(§3) Cells were seeded on a 96-well Nunc plate at a concentration of 5 × 10^3 cells per well in a volume of 100 μL of medium and cultured in a CO2 incubator at 37 °C until a monolayer was formed. […] After 48 h, the nutrient medium was removed from the plates and 100 µL of the nutrient medium without serum with MTT at a concentration of 0.5 mg/mL was added and incubated for 4 h at 37 °C. Formazan crystals were […] 100 µL of DMSO in each well. Optical density was recorded at 540 nm on an in vitro logic microplate reader (Russia). The experiments for all compounds were repeated in triplicate.
(§4) IC50 values were estimated using the Quest Graph IC50 Calculator (AAT Bioquest, Inc., Sunnyvale, CA, USA) (Version 2022) (accessed on 25 June 2022).

[2] = tested on: MCF-7 cells (human breast adenocarcinoma); assay: MTT cytotoxicity test, MCF-7; settings: for IC50: 24 h incubation per text, 48 h per method; for SI, selectivity index relative to Chang liver, MCF-7: MCF-7 vs Chang liver
Experimental: as §2
Formazan crystals were added to 100 µL of DMSO in each well. Optical density was recorded at 540 nm on an in vitro logic microplate reader (Russia). The experiments for all compounds were repeated in triplicate.

[3] = tested on: HuTu 80 cells (human duodenal adenocarcinoma); assay: MTT cytotoxicity test, HuTu 80; settings: Homo sapiens
Text: as §1, §2, §3, §4

[4] = tested on: SH-SY5Y cells (neuroblastoma); assay: MTT cytotoxicity test, SH-SY5Y; settings: for IC50: Homo sapiens, SH-SY5Y, MTT test, 24 h incubation per text, 48 h per method
Text: as §1, §2, §3, §4

[5] = tested on: Chang liver cells (human liver cells, normal cell line); assay: MTT cytotoxicity test, Chang liver normal cells; settings: 48 h incubation
Text: as §1, §2, §3, §4

[6] = tested on: SH-SY5Y neuroblastoma cells; assay: Glycolysis stress test (Seahorse XF96e, ECAR); settings: compound 100 µM
Experimental: We studied the ability of compounds to inhibit aerobic glycolysis using the Agilent Seahorse XF96e Analyzer (Seahorse Bioscience, North Billerica, MA, USA) assay of cellular metabolism on the level of proton production in samples examined on the SH-SY5Y neuroblastoma cell line using glycolysis stress tests. The extracellular acidification rate of the medium was measured in real time, which allowed us to assess the intensity of glycolysis in the cells by recording the main parameters of glycolytic function: basal glycolysis, glycolytic capacity and glycolytic reserve. Glycolytic capacity describes the maximum amount of glycolysis/glucose breakdown the cells can perform acutely, whereas glycolytic reserve is defined as the difference between the basal and maximal glycolytic capacity.
The ability of synthesized compounds to modulate […] glycolysis was studied using the Agilent Seahorse XF96e Analyzer (Seahorse Bioscience, Billerica, MA, USA) on the neuroblastoma SH-SY5Y cell line (40,000 cells per well) as described earlier.
Glycolysis was measured by subtracting the maximum rate of extracellular acidification of the medium before glucose injection from the maximum rate before oligomycin injection. Glycolytic capacity was measured by subtracting the maximum velocity value before glucose injection from the maximum velocity value after oligomycin injection. Glycolytic reserve was defined as the difference between glycolytic capacity and glycolysis.
Figure 6 Effect of synthesized compounds on the glycolytic profile of (a–c) SH-SY5Y tumor cells and (d) calculated parameters of glycolytic function. […] The concentration of compounds was 100 µM, glucose—10 mM, oligomycin—1 µM и 2-fluoro-2-deoxy-D-glucose—25 mM. Data are presented as mean±error of the mean (n = 3). Statistical significance was assessed using one-way ANOVA and Dunnett’s multiple comparison tests, where **** p < 0.0001, *** p < 0.001, ** p < 0.01 and * p < 0.05 vs. control.

[7] = HuTu80, read-out: IC50, HuTu 80
[8] = HuTu80, MTT test, 24 h incubation per text, 48 h per method, read-out: IC50, HuTu 80

| SMILES | IC50 [1] | IC50 ([2]; Homo sapiens, MCF7, MTT test) | IC50 [3, 7] | IC50 [4] | IC50 [5] | IC50 ([2]; MTT test) | Glycolysis: rate of extracellular acidification after saturating glucose ([6]; glucose 10 mM) | Glycolytic capacity ([6]; oligomycin 1 µM) | SI, selectivity index relative to Chang liver, MCF-7 [2] | IC50 [3, 8] | SI, selectivity index relative to Chang liver, SH-SY5Y ([4]; SH-SY5Y vs Chang liver) | SI, selectivity index relative to Chang liver, M-HeLa ([1]; M-HeLa vs Chang liver) |
| --- | --- | --- | --- | --- | --- | --- | --- | --- | --- | --- | --- | --- |
| COP(=O)(OC)C(c1cc(C(C)(C)C)c(O)c(C(C)(C)C)c1)c1ccc(NC(=O)Nc2cccc(C)c2)cc1NC(=O)Nc1cccc(C)c1 (centres unmarked) [13a] | 75 ± 6 µM | 77.4 ± 6.3 µM | 75.1 ± 6.1 µM | > 100 µM | 92 ± 7.2 µM |  |  |  |  |  |  |  |
| CCOP(=O)(OCC)C(c1cc(C(C)(C)C)c(O)c(C(C)(C)C)c1)c1ccc(NC(=O)Nc2ccc(C)cc2)cc1NC(=O)Nc1ccc(C)cc1 (centres unmarked) [14b] | 14.1 ± 1.2 µM | < 15 µM | 15.7 ± 1.3 µM | 27 ± 1.1 µM | 21 ± 1.8 µM | 13.7 ± 1.2 µM | decrease in the rate of extracellular acidification | decrease in glycolytic capacity |  |  |  |  |
| CC(C)OP(=O)(OC(C)C)C(c1cc(C(C)(C)C)c(O)c(C(C)(C)C)c1)c1ccc(N)nc1N (centres unmarked) [3c] | 38 ± 2.8 µM | 21.8 ± 1.7 µM |  | 30.4 ± 0.7 µM | 100 ± 2.7 µM |  |  |  | ~5 | > 100 µM | ~3 |  |
| CCOP(=O)(OCC)C(c1cc(C(C)(C)C)c(O)c(C(C)(C)C)c1)c1ccc(NC(=O)Nc2ccccc2)nc1NC(=O)Nc1ccccc1 (centres unmarked) [5b] | 62.5 ± 5.2 µM | 36.3 ± 2.8 µM | 20 ± 1.7 µM | 17.9 ± 1.9 µM | 31.4 ± 2.4 µM |  |  |  |  |  |  |  |
| CCOP(=O)(OCC)C(c1cc(C(C)(C)C)c(O)c(C(C)(C)C)c1)c1ccc(NC(=O)Nc2ccc(Cl)cc2)cc1NC(=O)Nc1ccc(Cl)cc1 (centres unmarked) [16b] | 100 ± 8.6 µM | > 100 µM | 61 ± 4.8 µM | > 100 µM | > 100 µM |  |  |  |  |  |  |  |
| CNC(=O)c1cc(Oc2ccc(NC(=O)Nc3ccc(Cl)c(C(F)(F)F)c3)cc2)ccn1 [SF, sorafenib, reference compound] | 25 ± 1.9 µM |  |  |  | 21.7 ± 1.7 µM |  |  |  |  | 6.2 ± 0.5 µM |  |  |
| CCOP(=O)(OCC)C(c1cc(C(C)(C)C)c(O)c(C(C)(C)C)c1)c1ccc(NC(=O)Nc2ccc(OC)cc2)nc1NC(=O)Nc1ccc(OC)cc1 (centres unmarked) [10b] | > 100 µM | 82.1 ± 6.5 µM | 45 ± 3.6 µM | > 100 µM | 81.2 ± 6.4 µM |  |  |  |  |  |  |  |
| CCOP(=O)(OCC)C(c1cc(C(C)(C)C)c(O)c(C(C)(C)C)c1)c1ccc(N)nc1N (centres unmarked) [3b] | 17.1 ± 1.3 µM | 34.2 ± 3 µM | 86.6 ± 6.8 µM | 77 ± 1.9 µM | > 100 µM |  |  |  |  |  |  |  |
| CC(C)(C)c1cc(C(c2ccc(N)nc2N)P(=O)(Oc2ccccc2)Oc2ccccc2)cc(C(C)(C)C)c1O (centres unmarked) [3d] | 7.4 ± 0.7 µM | 16.4 ± 1.7 µM | 63.2 ± 5.6 µM | 18.8 ± 0.2 µM | 52.3 ± 3.5 µM |  |  |  | ~3 |  |  | ~7 |
| CCOP(=O)(OCC)C(c1cc(C(C)(C)C)c(O)c(C(C)(C)C)c1)c1ccc(NC(=O)Nc2cccc(C)c2)nc1NC(=O)Nc1cccc(C)c1 (centres unmarked) [8b] | 62 ± 2.2 µM | 35.4 ± 2.8 µM | < 15 µM | 41 ± 0.3 µM | 13 ± 1.2 µM |  |  |  |  | 8 ± 0.6 µM |  |  |
| CCOP(=O)(OCC)C(c1cc(C(C)(C)C)c(O)c(C(C)(C)C)c1)c1ccc(NC(=O)Nc2ccc(OC)cc2)cc1NC(=O)Nc1ccc(OC)cc1 (centres unmarked) [15b] | > 100 µM | 96.3 ± 7.6 µM | 58.7 ± 4.6 µM | > 100 µM | 96 ± 7.6 µM |  |  |  |  |  |  |  |
| COP(=O)(OC)C(c1cc(C(C)(C)C)c(O)c(C(C)(C)C)c1)c1ccc(N)nc1N (centres unmarked) [3a] | 16.1 ± 1.3 µM | 31 ± 2.6 µM | > 100 µM | > 100 µM | > 100 µM |  |  |  |  |  |  |  |
| Cc1ccc(NC(=O)Nc2ccc(C(c3cc(C(C)(C)C)c(O)c(C(C)(C)C)c3)P(=O)(Oc3ccccc3)Oc3ccccc3)c(NC(=O)Nc3ccc(C)cc3)n2)cc1 (centres unmarked) [9d] | 78.9 ± 6.2 µM | 76.6 ± 6.2 µM | 50 ± 4 µM | > 100 µM | > 100 µM |  |  |  |  |  |  |  |
| COP(=O)(OC)C(c1cc(C(C)(C)C)c(O)c(C(C)(C)C)c1)c1ccc(NC(=O)Nc2ccc([N+](=O)[O-])cc2)cc1NC(=O)Nc1ccc([N+](=O)[O-])cc1 (centres unmarked) [17a] | 60 ± 4.7 µM | 73.6 ± 5.8 µM | 41 ± 3.1 µM | > 100 µM | 86 ± 6.6 µM |  |  |  |  |  |  |  |
| CCOP(=O)(OCC)C(c1cc(C(C)(C)C)c(O)c(C(C)(C)C)c1)c1ccc(NC(=S)Nc2ccccc2)nc1N (centres unmarked) [18b] | > 70 µM | > 70 µM | > 70 µM | > 70 µM |  |  |  |  |  |  |  |  |
| CC(C)(C)c1cc(C(c2ccc(NC(=O)Nc3ccccc3)cc2NC(=O)Nc2ccccc2)P(=O)(Oc2ccccc2)Oc2ccccc2)cc(C(C)(C)C)c1O (centres unmarked) [6d] | > 70 µM | > 70 µM | > 70 µM | > 70 µM |  |  |  |  |  |  |  |  |
| CCOP(=O)(OCC)C(c1cc(C(C)(C)C)c(O)c(C(C)(C)C)c1)c1ccc(NC(=O)Nc2cccc(C)c2)cc1NC(=O)Nc1cccc(C)c1 (centres unmarked) [13b] | 96.3 ± 7.5 µM | 57.7 ± 4.6 µM | 40.1 ± 3.1 µM | 86.3 ± 4 µM | 68.2 ± 5.4 µM |  |  |  |  |  |  |  |
| COc1ccc(NC(=O)Nc2ccc(C(c3cc(C(C)(C)C)c(O)c(C(C)(C)C)c3)P(=O)(Oc3ccccc3)Oc3ccccc3)c(NC(=O)Nc3ccc(OC)cc3)n2)cc1 (centres unmarked) [10d] | > 70 µM | > 70 µM | > 70 µM | > 70 µM |  |  |  |  |  |  |  |  |
| CC(C)(C)c1cc(C(c2ccc(NC(=O)Nc3ccccc3)nc2NC(=O)Nc2ccccc2)P(=O)(Oc2ccccc2)Oc2ccccc2)cc(C(C)(C)C)c1O (centres unmarked) [5d] | > 70 µM | > 70 µM | > 70 µM | > 70 µM |  |  |  |  |  |  |  |  |
| CC(C)(C)c1cc(C(c2ccc(NC(=O)Nc3ccc([N+](=O)[O-])cc3)cc2NC(=O)Nc2ccc([N+](=O)[O-])cc2)P(=O)(Oc2ccccc2)Oc2ccccc2)cc(C(C)(C)C)c1O (centres unmarked) [17d] | > 70 µM | > 70 µM | > 70 µM | > 70 µM |  |  |  |  |  |  |  |  |
